The source of these data is patent publication US12065435B2, “Compounds for the treatment of glycogen storage disorders” (HADASIT MEDICAL RESEARCH SERVICES AND DEVELOPMENT LTD., priority 2017, dated 2024).

Experiment [1] has as its system polyglucosan body (PB) in APBD patient-derived fibroblasts. Description: High content (image-based) PAS screening assay for polyglucosan bodies. In kind it is cell-based, human. The conditions noted are these: 0, 1, 5, 10 and 50 μM. The protocol:
All the steps of the assay were performed automatically using a Freedom Evo 150 liquid handling robot (Tecan). APBD patient-derived fibroblasts were seeded at a density of 800 cells/well in DMEM (Gibco) supplemented with 1 mM sodium pyruvate (Gibco), 1% antibiotics (Biological Industries, Israel) and 5% fetal bovine serum (Hyclone) into 384 well microclear plates (Greiner). The plates were transferred by the robotic arm (RoMa) into an automated incubator (Liconic), integrated with the robotic system, where they were incubated at 37° C. with 5% CO2. Following 24 h incubation, the medium was replaced by the robot using medium supplemented with 10 μM of each screened compound (0.1% DMSO final concentration, all prepared by the robot). The screened compounds were part of the Diverset CL collection purchased from ChemBridge (10,084 out of 50,000 molecules).
Next, these cells were cultured for another 24 h in the automated incubator, and, using the robot, washed them with PBS (Biological Industries, Israel), the cells were fixed with 4% paraformaldehyde (PFA), washed again with PBS, neutralized the previously added PFA by ammonium chloride (Sigma Aldrich), washed with PBS, permeabilized with 0.1% Triton X-100 (Sigma Aldrich), and washed again with PBS.
Following this, a robot was used to treat the fixed cells with 0.5 g/dl diastase (or amylase, Sigma Aldrich) for 5 minutes at 37° C. in the automated incubator, wash with PBS, stained with PAS (Merck), Hoechst 33342 (Sigma Aldrich) and Cell Mask Deep Red (Molecular Probes) and wash with PBS. Images of stained cells were then acquired by the IN Cell Analyzer 2000 (GE Healthcare) and analyzed using the IN Cell Investigator (GE Healthcare) applying an algorithm that quantified the PAS signal within each Cell Mask stained cell.
Images were segmented based on the Cell Mask signal which was linked with the segmentation of the nuclei, employing an empirically established sensitivity and kernel size for allowing the best segmentation. Once these nucleus-cytoplasm complex objects were selected, the software calculated the number of these objects (cell number) as well as the intensity of the PAS signal within each of them. All the assay parameters (including the acquisition exposure times, objective, and the analysis parameters) were kept constant throughout the whole screening campaign for allowing comparison of signals obtained from different batches of assay within the campaign.
The assay was performed as mentioned above, but with compound concentrations of 1, 5, 10, and 50 μM, instead of a constant concentration of 10 μM.
The discarded data was presumably associated with cells affected by toxic compounds. In the remaining data, the measured population mean PB intensity was normalized. Based on a series of images used for training, compounds were considered as positive only where following treatment the normalized PB mean intensity was at least under −1.2 z-score of the scale. Following this approach, 85 potential hits out of the 10,084 screened compounds were selected (0.84%).

The target of a further experiment is T1, recombinant human GS1 (Homo sapiens, UniProt P13807).
T1 sequence (P13807 1-737): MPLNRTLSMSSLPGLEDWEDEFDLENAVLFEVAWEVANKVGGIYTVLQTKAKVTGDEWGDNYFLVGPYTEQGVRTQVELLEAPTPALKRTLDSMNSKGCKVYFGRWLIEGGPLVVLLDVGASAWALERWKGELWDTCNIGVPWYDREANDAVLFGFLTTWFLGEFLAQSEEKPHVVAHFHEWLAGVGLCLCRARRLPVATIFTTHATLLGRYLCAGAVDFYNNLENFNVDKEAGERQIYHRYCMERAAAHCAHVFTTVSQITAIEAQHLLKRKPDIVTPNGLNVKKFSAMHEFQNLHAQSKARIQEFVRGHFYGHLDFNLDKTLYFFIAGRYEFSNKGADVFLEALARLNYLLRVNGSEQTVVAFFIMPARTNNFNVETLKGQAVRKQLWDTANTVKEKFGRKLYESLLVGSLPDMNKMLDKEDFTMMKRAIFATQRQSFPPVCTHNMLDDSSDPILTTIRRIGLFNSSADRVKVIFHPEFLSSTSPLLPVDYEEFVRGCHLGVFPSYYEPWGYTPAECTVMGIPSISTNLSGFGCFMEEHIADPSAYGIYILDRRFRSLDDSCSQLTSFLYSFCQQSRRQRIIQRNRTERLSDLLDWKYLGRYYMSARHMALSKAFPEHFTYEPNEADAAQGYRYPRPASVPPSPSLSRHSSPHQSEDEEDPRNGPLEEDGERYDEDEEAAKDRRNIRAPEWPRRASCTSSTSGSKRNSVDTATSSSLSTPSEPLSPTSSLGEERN
Description: In vitro GS activity assay. In kind it is biochemical. The conditions noted are these: 50 μM; unpaired t-tests, p<0.05. The protocol:
The reaction was carried out in 96-well plates containing 50 μl of reaction volume (50 mM Tris, pH8, 20 mM EDTA, 25 mM KF, 2 mg/ml glycogen, 10 mM Glucose-6-Phosphate, 1.65 mM UDP[14C]glucose and 100 mM UDP-glucose). To test the inhibitory effect of the hits, each one was included in the reaction at a final concentration of 50 μM. The reaction was initiated with the addition of 20 nM recombinant human GS1, followed by incubation at 37° C. for 30 min. The reaction was then stopped with the addition of 100 μl cold 100% ethanol, and the total suspension was transferred into a 96-well filter plate. Vacuum was applied to remove the ethanol. Five washing steps with 150 μl of cold 66% ethanol then fully removed any non-incorporated UDP[14C]glucose, while the labelled glycogen stayed on the well filters. The plate was dried at 37° C. incubator for 30 min. 50 μl of scintillation fluid was added to each well and the plate was read for 14C signal on Microplate scintillation and luminescence counter Top Count (Perkin Elmer).

Structures are written as SMILES.

As to `CC(C)n1ccnc1CN1CCC(c2[nH]ncc2-c2cccc(F)c2)CC1` [UDP #6, 4-[4-(3-fluorophenyl)-1H-pyrazol-5-yl]-1-[(1-isopropyl-1H-imidazol-2-yl)methyl]piperidine], in experiment [1], the “dose response of diastase resistant cell associated mean PAS intensity normalized by z-score” value is reported as “concentration dependent”. For the same compound, on recombinant human GS1, the “effect on GS activity (direction of change)” value (“effect … (direction of change)” below) is reported as “increasing”. In the case of `Cc1ccc2c(c1)c(CNC(=O)c1ccccc1C1CCNC1)nn2C` (centres unmarked) [UDP #10, N-[(1,5-dimethyl-1H-indazol-3-yl)methyl]-2-(3-pyrrolidinyl)benzamide], the “dose response of diastase resistant cell associated mean PAS intensity normalized by z-score” value in experiment [1] was “lowered mean normalized PAS intensity in a non-dose responding manner”. Further, the “effect … (direction of change)” value at recombinant human GS1 is “except for compound #10, have significantly changed GS activity”. Regarding `Cc1c(NC(=O)c2ccco2)cccc1C(=O)N1CCC2(CCCNC2)C1` (centres unmarked) [UDP #17, N-[3-(2,7-diazaspiro[4.5]dec-2-ylcarbonyl)-2-methylphenyl]-2-furamide], the “dose response of diastase resistant cell associated mean PAS intensity normalized by z-score” value in experiment [1] was “concentration dependent”. With `CCO[C@H]1COC[C@@H]1NC(=O)Cc1c(C)nc(N)nc1C` (relative stereo) [UDP #13, 2-(2-amino-4,6-dimethylpyrimidin-5-yl)-N-[(3S*,4R*)-4-ethoxytetrahydrofuran-3-yl]acetamide], the “dose response of diastase resistant cell associated mean PAS intensity normalized by z-score” value in experiment [1] was “concentration dependent”. With `CC(C)(C)c1ccc(O)c(-n2cnnc2)c1` [UDP #14, 4-tert-butyl-2-(4H-1,2,4-triazol-4-yl)phenol], in experiment [1], the “dose response of diastase resistant cell associated mean PAS intensity normalized by z-score” value is “concentration dependent”. For `Cc1ccc(NC(=O)CCn2cnc(-c3ccccc3)c2C2CCOC2)c(C)c1` (centres unmarked) [UDP #18, N-(2,4-dimethylphenyl)-3-[4-phenyl-5-(tetrahydrofuran-3-yl)-1H-imidazol-1-yl]propanamide], in experiment [1], the “dose response of diastase resistant cell associated mean PAS intensity normalized by z-score” value is given as “lowered mean normalized PAS intensity in a non-dose responding manner”. Besides, the “effect … (direction of change)” value on recombinant human GS1 is recorded as “increasing”. In the case of `COc1ccc(-c2ncc(C)c(N)n2)c(C)c1` [UDP #16, 2-(4-methoxy-2-methylphenyl)-5-methylpyrimidin-4-amine], the “dose response of diastase resistant cell associated mean PAS intensity normalized by z-score” value in experiment [1] is recorded as “lowered mean normalized PAS intensity in a non-dose responding manner”. As to `O=C(CN1CCOC1=O)N1CC[C@@H](c2ccc3ccccc3c2)[C@H](O)C1` (relative stereo) [UDP #5, 3-{2-[(3S*,4S*)-3-hydroxy-4-(2-naphthyl)piperidin-1-yl]-2-oxoethyl}-1,3-oxazolidin-2-one], the “dose response of diastase resistant cell associated mean PAS intensity normalized by z-score” value in experiment [1] is “concentration dependent”.

For the compound `COc1cc(F)c(CN2CCN(c3cncc(C(N)=O)n3)CC2)c(F)c1` [UDP #2, 6-[4-(2,6-difluoro-4-methoxybenzyl)piperazin-1-yl]pyrazine-2-carboxamide], the “dose response of diastase resistant cell associated mean PAS intensity normalized by z-score” value in experiment [1] was “concentration dependent”.

Regarding `Oc1ccc(-c2cc(NCc3cccnc3)nc3[nH]ccc23)c(F)c1` [UDP #1, 3-fluoro-4-{6-[(pyridin-3-ylmethyl)amino]-1H-pyrrolo[2,3-b]pyridin-4-yl}phenol], the “dose response of diastase resistant cell associated mean PAS intensity normalized by z-score” value in experiment [1] is on record as “lowered mean normalized PAS intensity in a non-dose responding manner”. Still for that read-out and setting: under `Cn1nc(-c2cccs2)cc1C(=O)N1[C@@H]2CC[C@H]1CNC(=O)C2` (relative stereo) [UDP #9, (1S*,6R*)-9-{[1-methyl-3-(2-thienyl)-1H-pyrazol-5-yl]carbonyl}-3,9-diazabicyclo[4.2.1]nonan-4-one] stands “lowered mean normalized PAS intensity in a non-dose responding manner”.

Take `Cc1nc(C(C)C)cc(N2CCN(Cc3ncccc3C)CC2)n1` [UDP #7, 4-isopropyl-2-methyl-6-{4-[(3-methylpyridin-2-yl)methyl]piperazin-1-yl}pyrimidine]: the “dose response of diastase resistant cell associated mean PAS intensity normalized by z-score” value in experiment [1] was “lowered mean normalized PAS intensity in a non-dose responding manner”. Moreover, the “effect … (direction of change)” value at recombinant human GS1 is given as “increasing”. Take `CC(C)CCN1CCNC(=O)C1CC(=O)N1CCc2[nH]nc(C3CC3)c2C1` (centres unmarked) [UDP #3, 3-[2-(3-cyclopropyl-1,4,6,7-tetrahydro-5H-pyrazolo[4,3-c]pyridin-5-yl)-2-oxoethyl]-4-(3-methylbutyl)-2-piperazinone]: the “dose response of diastase resistant cell associated mean PAS intensity normalized by z-score” value in experiment [1] is on record as “lowered mean normalized PAS intensity in a non-dose responding manner”. As to `O=C(c1ccoc1)N1CCOc2c(O)cc(-c3cccc(Cl)c3)cc2C1` [UDP #12, 7-(3-chlorophenyl)-4-(3-furoyl)-2,3,4,5-tetrahydro-1,4-benzoxazepin-9-ol], in experiment [1], the “dose response of diastase resistant cell associated mean PAS intensity normalized by z-score” value is given as “concentration dependent”. On recombinant human GS1, the “effect … (direction of change)” value is listed as “increasing”.

Consider `CC1CCC(=O)N1c1ccc(-n2cnnc2)cc1` (centres unmarked) [UDP #8, 5-methyl-1-[4-(4H-1,2,4-triazol-4-yl)phenyl]pyrrolidin-2-one], for which the “dose response of diastase resistant cell associated mean PAS intensity normalized by z-score” value in experiment [1] is “concentration dependent”. Moreover, the “effect … (direction of change)” value at recombinant human GS1 is “increasing”. As to `C1CCc2c(n[nH]c2CCNC2CCC3(CCNCC3)CC2)C1` [UDP #15], the “dose response of diastase resistant cell associated mean PAS intensity normalized by z-score” value in experiment [1] was “concentration dependent”.

As for `CCc1ccc(CN(C)C(=O)c2ccc3c(c2)no[n+]3[O-])nc1` [UDP #11, N-[(5-ethylpyridin-2-yl)methyl]-N-methyl-2,1,3-benzoxadiazole-5-carboxamide 1-oxide], in experiment [1], the “dose response of diastase resistant cell associated mean PAS intensity normalized by z-score” value is listed as “concentration dependent”.
